Patent US10494597B2, “Contamination mitigation” (Butamax Advanced Biofuels LLC, priority 2014, dated 2019)

Assays:
[1] = system: cell inoculum (shake flask culture); assay: Shake flask culture with crude COFA with or without BHT, YSI glucose measurements; format: cell-based; conditions: BHT 0 wt % (control) to 5 wt % in crude COFA; 50% v/v COFA; 40 g/L glucose synthetic medium; 30° C., 260 rpm
Method: In an experimental example, a cell inoculum originated from a 72 hour seed flask with a 30 g/L synthetic medium. The culture was inoculated into 40 g/L glucose in synthetic medium. […] The flasks were incubated in a thirty degree Celsius (30° C.), 260 revolutions per minute (rpm) shaker. One to one point five milliliter (1-1.5) mL samples were taken at points in time.

[2] = system: gram-positive and gram-negative bacteria (e.g., lactobacillus); conditions: cited from earlier work
[3] = system: yeast (e.g., Saccharomyces); conditions: at comparable concentrations; cited from earlier work

Cc1cc(C(C)(C)C)c(O)c(C(C)(C)C)c1 [BHT, butylated hydroxytoluene]
glucose consumption [1]: No difference in glucose consumption was observed | antimicrobial activity to gram-positive and gram-negative bacteria [2]: exhibits antimicrobial activity | effect on yeast [3]: does not affect yeast
